From patent publication US20260317356A1, “SMALL MOLECULE MODULATORS OF OGG1” (AZKARRA THERAPEUTICS, INC., priority 2023, published 2026)

These compounds were tested against hOGG1 (Homo sapiens, UniProt O15527) (assay: Biochemical fluorescence assay to measure enzymatic activity of hOGG1 (OGG1/APEX IC50)). Conditions: 1 nM OGG1+2 nM APEX+6 nM dsDNA (8-oxo-dG substrate); pH 7.5; RT 40 min; read-out: OGG1/APEX IC50.
Set-up: Protein His-hOGG1 (12-323) was prepared; His (N); host or cells: E. coli
Description: Biological Example 1: Biochemical Assay to Measure Enzymatic Activity of hOGG1 (OGG1/APEX IC50)
The reported fluorescence-based assay (Donley et al ACS Chem Biol 2015; 10 (10), 2334-2343) was modified to include hAPE1/APEX1 protein. The oligonucleotide substrate with 8-oxo-dG lesion at X was prepared (LGC Biosearch, Petaluma, CA):
Protein His-hOGG1 (12-323) was prepared by Chempartner Corporation via E. coliexpression and purification by Ni-NTA and S200 column to afford 95% purity by SDS-PAGE and SEC-HPLC analysis and hAPE1/APEX1 was purchased (SinoBiological). The assay was run in 384-well plates following the general procedure: (1) compound dilution; (2) addition of hOGG1/APEX1 to compound wells; (3) addition of DNA substrate to compound wells; (4) read Ex520/Em600 (TAMRA) fluorescence signal after 40 minutes; (5) calculate % inhibition/compound concentration; (6) calculate dose-response curve and IC50 value.
• (1) 20 mM of compound solution was prepared in DMSO; • (2) Compounds were diluted to 10 mM in DMSO in ECHO Source plate (Labcyte PP-0200), by mixing […] DMSO; • (3) 4× dilution of compounds, for 10 points, by mixing […] DMSO; and • (4) Dispensed 150 nL compounds to assay plate (Corning 3573) in column 3-22. Dispensed 150 nL DMSO to Min and Max control wells in column 1-2 and column 23-24.
• (1) Assay buffer was prepared (20 mM Tris pH 7.5, 100 mM KCl, 0.1% BSA, 0.01% Tween). • (2) […] buffer was added to Min control wells (Column 1-2). • (3) Enzyme was diluted to 2× with buffer (2 nM OGG1+4 nM APEX1). Dispensed […] (except Min control wells). Shake at 500 rpm at RT for 20 min. • (4) DNA substrate diluted to 2× with buffer (12 nM). Dispensed […]. Final concentration: 1 nM OGG1+2 nM APEX+6 nM dsDNA. Shake at RT for 40 min. • (5) Ex520/Em600 (TAMRA) was read.
• (1) Calculated respective mean of Max and Min control wells. • (2) Converted data to percentage inhibition.
Inhibition (%)=(Max mean−value)/(Max mean−Min mean)×100% • (3) Calculated sigmoidal curve (3-parameter) and IC50 (using GraphPad Prism software).

Chain of hOGG1 (O15527 12-323): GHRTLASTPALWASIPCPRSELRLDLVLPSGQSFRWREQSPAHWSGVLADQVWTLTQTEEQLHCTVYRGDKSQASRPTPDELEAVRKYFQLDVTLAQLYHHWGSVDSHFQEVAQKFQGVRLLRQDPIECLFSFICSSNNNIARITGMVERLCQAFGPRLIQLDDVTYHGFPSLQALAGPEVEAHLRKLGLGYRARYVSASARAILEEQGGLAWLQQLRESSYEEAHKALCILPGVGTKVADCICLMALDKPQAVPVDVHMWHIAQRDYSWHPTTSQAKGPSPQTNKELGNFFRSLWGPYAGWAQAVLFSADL

IC50, < 100 nM:
COc1cc(NC(=O)[C@]2(C)CC[C@H](N3Cc4c(C)cccc4NC3=O)CC2)ccc1C (single isomer, unassigned) [Example 101, (1s,4s)-N-(3-methoxy-4-methylphenyl)-1-methyl-4-(5-methyl-2-oxo-1,2-dihydroquinazolin-3(4H)-yl)cyclohexanecarboxamide]
COc1cc(NC(=O)[C@H]2CC[C@@H](N3Cc4c(Br)cncc4NC3=O)CC2)ccc1C [Example 91, (1s,4s)-4-(5-bromo-2-oxo-1,2-dihydropyrido[3,4-d]pyrimidin-3(4H)-yl)-N-(3-methoxy-4-methylphenyl)cyclohexanecarboxamide]
COc1cc(NC(=O)[C@H]2CC[C@@H](N3Cc4c(C)cc(CN5CC[C@H](O)C5)cc4NC3=O)CC2)ccc1C (stereo in doubt) [Example 98, (1R,4s)-4-(7-(((S)-3-hydroxypyrrolidin-1-yl)methyl)-5-methyl-2-oxo-1,2-dihydroquinazolin-3(4H)-yl)-N-(3-methoxy-4-methylphenyl)cyclohexanecarboxamide]
COc1cc(NC(=O)[C@H]2CC[C@@H](N3Cc4c(C)cnc(CN)c4NC3=O)CC2)ccc1C [Example 20, (1s,4s)-4-(8-(Aminomethyl)-5-methyl-2-oxo-1,2-dihydropyrido[3,4-d]pyrimidin-3(4H)-yl)-N-(3-methoxy-4-methylphenyl)cyclohexanecarboxamide]
Cc1cccc2c1CN([C@H]1CC[C@@H](C(=O)Nc3cc4ccccc4[nH]3)CC1)C(=O)N2 [Example 112, (1s,4s)-N-(1H-indol-2-yl)-4-(5-methyl-2-oxo-1,2-dihydroquinazolin-3(4H)-yl)cyclohexanecarboxamide]
COc1cc(NC(=O)[C@H]2CC[C@@H](N3Cc4c(C)cc(NCCN(C)C)cc4NC3=O)CC2)ccc1C [Example 96, (1s,4s)-4-(7-(2-(dimethylamino)ethylamino)-5-methyl-2-oxo-1,2-dihydroquinazolin-3(4H)-yl)-N-(3-methoxy-4-methylphenyl)cyclohexanecarboxamide]
COc1cc(NC(=O)[C@H]2CC[C@@H](N3Cc4c(C)cccc4NC3=O)CC2)ccc1C [Example 69, (1s,4s)-N-(3-methoxy-4-methylphenyl)-4-(5-methyl-2-oxo-1,2-dihydroquinazolin-3(4H)-yl)cyclohexanecarboxamide]
COc1cc(NC(=O)[C@H]2CC[C@@H](N3Cc4c(C)cc(N5CC(OC)C5)cc4NC3=O)CC2)ccc1C [Example 29, (1s,4s)-N-(3-Methoxy-4-methylphenyl)-4-(7-(3-methoxyazetidin-1-yl)-5-methyl-2-oxo-1,2-dihydroquinazolin-3(4H)-yl)cyclohexanecarboxamide]
COc1ccc(NC(=O)[C@H]2CC[C@@H](N3Cc4c(C)cc(NCCN(C)C)cc4NC3=O)CC2)cc1Cl [Example 100, (1s,4s)-N-(3-chloro-4-methoxyphenyl)-4-(7-(2-(dimethylamino)ethylamino)-5-methyl-2-oxo-1,2-dihydroquinazolin-3(4H)-yl)cyclohexanecarboxamide]

IC50, > 10000 nM:
COc1cc(NC(=O)[C@H]2[C@@H]3C[C@@H](N4Cc5c(Br)cccc5C4=O)C[C@@H]32)ccc1C (single isomer, unassigned) [Example 270]
COc1cc(NC(=O)[C@H]2CC[C@@H](N3Cc4c(C)cccc4C3=O)CC2)ccn1 [Example 234, (1s,4s)-N-(2-Methoxypyridin-4-yl)-4-(4-methyl-1-oxoisoindolin-2-yl)cyclohexanecarboxamide]
Cc1cccc2c1CN([C@H]1CC[C@@H](C(=O)Nc3cccc(=O)[nH]3)CC1)C2=O [Example 248, (1s,4s)-4-(4-Methyl-1-oxoisoindolin-2-yl)-N-(6-oxo-1,6-dihydropyridin-2-yl)cyclohexanecarboxamide]
COc1cc(NC(=O)[C@H]2CC[C@@H](N3Cc4c(cccc4C(C)C)C3=O)CC2)ccc1C [Example 158, (1s,4s)-4-(4-Isopropyl-1-oxoisoindolin-2-yl)-N-(3-methoxy-4-methylphenyl)cyclohexanecarboxamide]
Cc1cccc2c1CN([C@H]1CC[C@@H](C(=O)Nc3ccc(=O)n(C)c3)CC1)C2=O [Example 246, (1s,4s)-4-(4-Methyl-1-oxoisoindolin-2-yl)-N-(1-methyl-6-oxo-1,6-dihydropyridin-3-yl)cyclohexanecarboxamide]

IC50, 1000 to 10000 nM:
COc1cc(NC(=O)[C@H]2CC[C@@H](N3Cc4c(ccc(OCCN(C)C)c4C)NC3=O)CC2)ccc1C [Example 40, (1s,4s)-4-(6-(2-(Dimethylamino)ethoxy)-5-methyl-2-oxo-1,2-dihydroquinazolin-3(4H)-yl)-N-(3-methoxy-4-methylphenyl)cyclohexanecarboxamide]
COc1cc(NC(=O)[C@H]2CC[C@@H](N3Cc4c(ccc(N)c4C)NC3=O)CC2)ccc1C [Example 46, (1s,4s)-4-(6-Amino-5-methyl-2-oxo-1,2-dihydroquinazolin-3(4H)-yl)-N-(3-methoxy-4-methylphenyl)cyclohexanecarboxamide]
COc1cc(NC(=O)[C@H]2CC[C@@H](N3Cc4c(C=O)cccc4C3=O)CC2)ccc1C [Example 162, (1s,4s)-4-(4-Formyl-1-oxoisoindolin-2-yl)-N-(3-methoxy-4-methylphenyl)cyclohexanecarboxamide]
COc1cc(NC(=O)[C@@H]2CC[C@H](N3Cc4ccccc4NC3=O)C2)ccc1C [Example 65, (1R,3S)—N-(3-methoxy-4-methylphenyl)-3-(2-oxo-1,2-dihydroquinazolin-3(4H)-yl)cyclopentanecarboxamide]
Cc1ccc(NC(=O)[C@H]2CC[C@@H](N3Cc4c(C)cccc4C3=O)CC2)cc1O [Example 222, (1s,4s)-N-(3-Hydroxy-4-methylphenyl)-4-(4-methyl-1-oxoisoindolin-2-yl)cyclohexanecarboxamide]

IC50, 100 to 1000 nM:
COc1cc(NC(=O)[C@H]2CC[C@@H](N3Cc4c(Br)cccc4C3=O)CC2)ccc1C [Example 150, (1s,4s)-4-(4-Bromo-1-oxoisoindolin-2-yl)-N-(3-methoxy-4-methylphenyl)cyclohexanecarboxamide]
COc1cc(NC(=O)[C@H]2CC[C@@H](N3Cc4c(C)ccc(N5CC(C)(C#N)C5)c4NC3=O)CC2)ccc1C [Example 34, (1s,4s)-4-(8-(3-Cyano-3-methylazetidin-1-yl)-5-methyl-2-oxo-1,2-dihydroquinazolin-3(4H)-yl)-N-(3-methoxy-4-methylphenyl)cyclohexanecarboxamide]
COc1cc(NC(=O)[C@H]2CC[C@@H](N3Cc4c(ccc(O)c4Br)C3=O)CC2)ccc1C [Example 189, (1s,4s)-4-(4-Bromo-5-hydroxy-1-oxoisoindolin-2-yl)-N-(3-methoxy-4-methylphenyl)cyclohexanecarboxamide]
COc1cc(NC(=O)[C@H]2CC[C@@H](N3Cc4c(Cl)cccc4C3=O)CC2)ccc1C [Example 149, (1s,4s)-4-(4-Chloro-1-oxoisoindolin-2-yl)-N-(3-methoxy-4-methylphenyl)cyclohexanecarboxamide]
COc1cc(NC(=O)[C@H]2CC[C@@H](N3Cc4c(Br)cc([N+](=O)[O-])cc4C3=O)CC2)ccc1C [Example 163, (1s,4s)-4-(4-Bromo-6-nitro-1-oxoisoindolin-2-yl)-N-(3-methoxy-4-methylphenyl)cyclohexanecarboxamide]
Cc1cccc2c1CN([C@H]1CC[C@@H](C(=O)Nc3nc4ccccc4[nH]3)CC1)C2=O [Example 274, (1s,4s)-N-(1H-benzo[d]imidazol-2-yl)-4-(4-methyl-1-oxoisoindolin-2-yl)cyclohexanecarboxamide]
COc1cc(NC(=O)[C@H]2CC[C@@H](N3Cc4c(C)cc(C=O)cc4C3=O)CC2)ccc1C [Example 210, (1s,4s)-4-(6-Formyl-4-methyl-1-oxoisoindolin-2-yl)-N-(3-methoxy-4-methylphenyl)cyclohexanecarboxamide]
CCc1ccc(NC(=O)[C@H]2CC[C@@H](N3Cc4c(C)cccc4NC3=O)CC2)cc1C [Example 93, (1s,4s)-N-(4-ethyl-3-methylphenyl)-4-(5-methyl-2-oxo-1,2-dihydroquinazolin-3(4H)-yl)cyclohexanecarboxamide]
